In patent publication US12503453B2, “USP7 inhibition” (Dana-Farber Cancer Institute, Inc., priority 2018, dated 2025):

What was measured:
USP7 [1] = molecular target: T1, USP7 (Homo sapiens (Human), UniProt Q93009); assay: Competitive ABPP with HA-Ub-VS in MCF7 crude cell extracts; format: binding; details: read-out: IC50 of inhibition of HA-Ub-VS labeling
Procedure: (§1) HA-Ub-VS experiments were performed as previously described in Lamberto, I. et al. Structure-Guided Development of a Potent and […] Selective Non-covalent Active-Site Inhibitor of USP7. Cell Chem. Biol. 24, 1490-1500 (2017). Briefly, target engagement lysis buffer (50 mM Tris pH 8.0, 150 mM NaCl, 5 mM MgCl2, 0.5 mM EDTA, 0.5% NP-40, 10% glycerol, 1 mM TCEP, protease and phosphatase inhibitors) was added to cell pellets on ice. Lysate was cleared by centrifugation and diluted to 1.67 mg/mL. Where indicated, 30 μL lysate was then incubated with inhibitors or DMSO for the indicated timepoints. 1 μM HA-Ub-VS was then added to the lysate and incubated at RT for the indicated time points. Labeling reactions were quenched with 4×LDS sample buffer (Thermo Fisher B0007) supplemented with 10% BME, vortexed vigorously, and heated to 95° C. for 5 minutes. Samples were resolved by SDS-PAGE and analyzed by Western blot with the indicated antibodies.

USP7 [2] = molecular target: T1, USP7; assay: Live cell treatment and competitive ABPP with HA-Ub-VS; format: cell-based; details: live cell treatment, 6 hr; read-out: IC50 of USP7 inhibition in cyto
Procedure: as §1

[3] = test system: MDM2-p53 signaling axis in MCF7 cells; assay: Whole cell lysate Western blots of MCF7 cells (MDM2-p53 signaling axis); format: cell-based; details: wild-type TP53
MCF7 cells = assay: Cell cycle analysis by propidium iodide staining; format: cell-based; details: 1 μM, 24 hours
Procedure: For propidium iodide (PI) staining, treated cells (˜1 million per condition) were washed with cold PBS, then fixed in 80% ethanol overnight at −20° C. After fixing, cells were pelleted, washed with PBS, and reconstituted in 500 μL FxCycle PI/RNAse A staining solution (Thermo Fisher). Cells were stored overnight at 4° C. and analyzed using a BD Fortessa flow cytometer.

HEK293 proteome (USP7) = HEK293 proteome (USP7) (Homo sapiens (Human), UniProt Q93009); assay: Compound 6-DTB proteome-wide profiling; format: binding; details: HEK293 cell lysates, 5 hours, 1 μM or 10 μM
Chain of HEK293 proteome (USP7) (Q93009 whole entry): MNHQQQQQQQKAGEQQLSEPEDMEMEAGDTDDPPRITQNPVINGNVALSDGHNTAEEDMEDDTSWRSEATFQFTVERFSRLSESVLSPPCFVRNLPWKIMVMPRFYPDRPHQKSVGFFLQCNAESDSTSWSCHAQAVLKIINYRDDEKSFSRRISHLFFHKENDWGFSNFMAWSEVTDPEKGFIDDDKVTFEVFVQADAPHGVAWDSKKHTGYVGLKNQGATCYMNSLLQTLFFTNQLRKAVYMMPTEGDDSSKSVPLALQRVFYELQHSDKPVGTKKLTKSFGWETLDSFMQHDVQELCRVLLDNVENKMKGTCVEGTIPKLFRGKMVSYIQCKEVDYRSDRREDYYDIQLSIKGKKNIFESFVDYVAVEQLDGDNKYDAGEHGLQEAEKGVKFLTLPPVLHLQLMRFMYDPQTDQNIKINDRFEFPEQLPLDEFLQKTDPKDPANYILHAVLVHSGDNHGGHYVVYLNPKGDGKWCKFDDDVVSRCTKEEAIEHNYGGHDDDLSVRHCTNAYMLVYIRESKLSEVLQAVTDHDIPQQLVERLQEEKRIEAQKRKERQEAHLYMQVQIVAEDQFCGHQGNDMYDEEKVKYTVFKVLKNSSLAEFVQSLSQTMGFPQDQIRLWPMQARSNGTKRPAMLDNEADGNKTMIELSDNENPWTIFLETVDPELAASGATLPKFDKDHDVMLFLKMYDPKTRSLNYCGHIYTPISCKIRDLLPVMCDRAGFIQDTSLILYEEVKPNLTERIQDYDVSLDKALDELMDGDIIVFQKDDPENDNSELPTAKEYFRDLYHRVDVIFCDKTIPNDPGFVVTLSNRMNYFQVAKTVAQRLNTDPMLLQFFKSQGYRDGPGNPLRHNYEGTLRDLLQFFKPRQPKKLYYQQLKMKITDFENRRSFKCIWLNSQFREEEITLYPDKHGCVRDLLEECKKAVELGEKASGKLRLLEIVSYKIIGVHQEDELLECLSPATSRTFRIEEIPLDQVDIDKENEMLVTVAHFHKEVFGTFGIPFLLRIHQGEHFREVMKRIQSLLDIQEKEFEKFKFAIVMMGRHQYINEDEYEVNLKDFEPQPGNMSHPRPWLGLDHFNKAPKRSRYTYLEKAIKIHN
Procedure: HEK 293AD cells were lysed as described above, and the lysate was cleared by centrifugation. […] SDS was added to a final concentration of 1.2% (27.2 μL of a 10% stock), and denatured by heating to 80° C. for 5 minutes. After cooling to RT, 1125 μL 1×PBS was added to dilute the final SDS concentration to 0.2%. 50 μL streptavidin agarose slurry was added to each sample, followed by incubation at RT for 3 hours. After streptavidin enrichment, samples were washed vigorously (2×0.2% SDS, 3×PBS, 3×ddH2O). After the final wash, all supernatant was removed using a flat-bottom tip, and the resin was flash frozen and stored at −80° C. until workup for TMT labeling.
Streptavidin beads were resuspended in 95 μL 100 mM Tris pH 8.0. Each sample was denatured with 0.1% rapigest, reduced (10 mM dithiothreitol), alkylated (22.5 mM iodoacetamide), and digested with trypsin overnight at 37° C. […] Eluted peptides were then analyzed by nanoLC-MS as described (Ficarro, S. B. et al. Improved electrospray ionization efficiency compensates for diminished chromatographic resolution and enables proteomics analysis of tyrosine signaling in embryonic stem cells. Anal. Chem. 81, 3440-3447 (2009)) with a NanoAcquity UPLC system (Waters, Milford, MA) interfaced to a QExactive HF mass spectrometer (Thermofisher Scientific, San Jose, CA). […]

TC32 cells = assay: Cell proliferation (CellTiter-Glo), TC32; format: cell-based; details: TP53 wild-type, 3 days
Procedure: (§2) Cells were plated in 384-well culture-treated plates and allowed to settle overnight. After drug treatment and appropriate incubation time, cell viability was assessed using the CellTiter-Glo Luminescent Cell Viability Assay (Promega). Luminescence was read on a Fluostar Omega Reader (BMG Labtech).

TC138 cells = assay: Cell proliferation (CellTiter-Glo), TC138; format: cell-based; details: TP53 wild-type, 3 days
Procedure: as §2

A673 cells = assay: Cell proliferation (CellTiter-Glo), A673; format: cell-based; details: TP53-mutant, 3 days
Procedure: as §2

[4] = test system: TC32 cells expressing sgTP53; assay: Cell proliferation of TC32 cells with TP53 knockout; format: cell-based; details: 3 days
Procedure: as §2
Lentivirus was produced by transfecting HEK-293T cells with the pLentiV2 vector (Addgene plasmid #52961) and the packaging plasmids pCMV8.9 and pCMV-VSVG according to the FuGENE 6 (Roche) protocol. For lentiviral transduction, Ewing sarcoma cells were incubated with 2 mL of virus and 8 μg/mL of polybrene (Sigma-Aldrich). Cells were selected in puromycin (Sigma-Aldrich) 48 hours after infection for single knockout experiments.
sgRNAs were designed using the Broad Institute's sgRNA designer tool. The following sequences were used as control or to target the respective genes: […]

T1 sequence (Q93009 whole entry): as above

IC50 (USP7 [1]; 30 min preincubation): 85 nM | IC50 (USP7 [1]; 4 hr preincubation): 8 nM | IC50 (USP7 [2]): 39 nM | inhibition of compound 6-DTB labeling of USP7 (only protein of 566) (HEK293 proteome (USP7)): > 3 fold
Structure (SMILES): CN1CCN(CCC(=O)Nc2ccc3c(=O)n(CC4(O)CCN(C(=O)[C@@H](CCCNC(=O)c5ccc6c(Cl)c7c(nc6c5)CCCC7)Cc5ccccc5)CC4)cnc3c2)CC1 [compound 6, (S)—N-(4-benzyl-5-(4-hydroxy-4-((7-(3-(4-methylpiperazin-1-yl)propanamido)-4-oxoquinazolin-3(4H)-yl)methyl)piperidin-1-yl)-5-oxopentyl)-9-chloro-5,6,7,8-tetrahydroacridine-3-carboxamide]
MDM2 protein level [3]: induced rapid degradation of MDM2 within 2 hours | p53 and p21 protein levels [3]: increases in p53 and downstream p21 protein levels | cell cycle effect (MCF7 cells): complete G1 arrest | growth inhibition (TC32 cells): potently inhibited | growth inhibition (TC138 cells): potently inhibited | growth inhibition (A673 cells): neither TP53-mutant A673 or TC71 was substantially inhibited | cytotoxic effect after TP53 knockout [4]: rescued by TP53 knockout
